In one data set the test system is Musca domestica Snaidm. Briefly: Topical LD50 to adult female SNAIDM houseflies. To be noted: for LD50: Musca domestica, read-out: Topical LD50, Musca domestica Snaidm, Alone; for LD50 / Topical LD50, Musca domestica Snaidm, with pb: topical; for Topical LD50, Musca domestica Snaidm, with pb: SNAIDM strain, synergized with piperonyl butoxide; for SR, Musca domestica Snaidm: synergistic ratio: LD50 alone/LD50 synergized with piperonyl butoxide. On the procedure:
(§1) The compounds of the present invention were tested for insecticidal activity by standard methods, and compared with the insecticidal activities of DDT and symmetrical analogs of DDT, such methoxychlor. Toxicological methods for the determination of the topical LD50 values to adult female SNAIDM and RSP houseflies, Musca domestica L. and to Phormia regina, and LC50 values to Culex pipiens quinquefasciatus Say, and Anopheles albimanus Weid mosquitoes were described by Metcalf el al., 44 Bull. World Health Org. 363 (1971). The methods for evaluation of metabolism by mouse liver homogenate and by female RSP housefly and salt-marsh caterpillar larvae Estigmene acrea Drury, were described by Kapoor et al., 18 J. Agr. Food Chem. 1145 (1970). The techniques for model eocsystem evluation were described by Metcalf et al., 5 J. Environ. Sci. Tech. 709 (1971).
(§2) Since piperonyl butoxide serves to block the action of MFO, the synergized LD50 values express the intrinsic toxicity of the compounds. With the detoxifying action of MFO enzymes blocked, the intrinsic toxicity of the compounds can thus be measured.

The subject of the next data set is Musca domestica Rsp. Briefly: Topical LD50 to adult female RSP houseflies. To be noted: for LD50: Musca domestica, read-out: Topical LD50, Musca domestica Rsp, Alone; for LD50 / Topical LD50, Musca domestica Rsp, with pb: topical; for Topical LD50, Musca domestica Rsp, with pb: RSP strain, synergized with piperonyl butoxide; for SR, Musca domestica Rsp: synergistic ratio: LD50 alone/LD50 synergized with piperonyl butoxide. On the procedure: as §1, §2

Another data set concerns Phormia regina. Briefly: whole plant or invertebrate. To be noted: for LD50: Phormia regina, read-out: Topical LD50, Phormia regina, Alone; for LD50 / Topical LD50, Phormia regina, with pb: topical; for SR, Phormia regina: synergistic ratio: LD50 alone/LD50 synergized with piperonyl butoxide; for Topical LD50, Phormia regina, with pb: synergized with piperonyl butoxide. Here is the method: as §1, with “363 (1971).” left out, “Food Chem. 1145 (1970).” left out, “Tech.” for “Tech. 709 (1971).”
as §2

The subject of a further data set is Culex fatigans larvae. Briefly: LC50 to Culex fatigans larvae. Type of data set: in vivo, Culex pipiens quinquefasciatus Say. An excerpt: (§3) World Health Org. 363 (1971). […] Food Chem. 1145 (1970). […] Sci. Tech. 709 (1971). The results are detailed in Table II. ##SPC1##
Data set [1] relates to Anopheles albimanus larvae. The experiment in a line: LC50 to Anopheles albimanus larvae. Type of data set: in vivo, Anopheles albimanus Weid.
Source text: as §3

The nature of data set [2]: Model ecosystem: distribution, ecological magnification and Biodegradability Index. The conditions noted are these: 33 days, 5.0 mg 3H-ethoxyaniline to Sorghum. An excerpt:
After the amounts of the various metabolites have been calculated and a determination is made as to which of the metabolites are to be designated as "polar" and which are to be designated as "non-polar", a Biodegradability Index (amount of polar metabolites/amount of nonpolar metabolites) may be calculated. Remembering that nonpolar compounds, such as DDT are readily soluble in the fatty tissues, but are not readily soluble in water based solutions, and that the cell fluid is essentially a water based solution, the lower the Biodegradability Index, the lower the amount of biodegradability of the compound. The higher the amount of polarity, the greater the likelihood that the polar compound will dissolve in water, a very polar compound, and be eliminated from the cell.
The environmental fate of any new pesticide is a factor of paramount importance in determining how and where it might be used. The behavior of ^3 H-α-trichloromethyl-p-ethoxybenzyl-p-ethoxyaniline has been studied by the model ecosystem technique following application of 5.0 mg. of labeled compound to Sorghum plants. A summary of
metabolites from the organisms in the model ecosystem after 33 days were
identified by cochromatography with standards of known constitution, by
appropriate chromogenic reagents, and by high-resolution mass
spectrometry. The data of Table IV indicate the O-dealkylation of
Food Chem. 1 (1972). Ethoxychlor was found in the snail to 58.6 ppm and in the fish to 0.92 ppm, along with its ethylene and the mono- and bis-phenols formed by O-dealkylation. The ecological magnification (E.M.) of ethoxychlor, defined as the ratio of the parent material in the fish to the concentration in the water, was 1500-fold as compared with an E.M. of only 0.7-fold for the ethoxyaniline.
Comparing the Biodegradability Indices (B.I.=total recovered polar metabolites/total recovered nonpolar metabolites) the values are 0.44 for ethoxychlor and 2.0 for ethoxyaniline.

Turning to `CCOc1ccc(NC(c2ccc(C)cc2)C(Cl)(Cl)Cl)cc1` (stereo not drawn) [XII], in the data set on Musca domestica Snaidm, the LD50 (usually the dose expected to kill half of the subjects tested) amounted to 35 mg/kg; the “Topical LD50, Musca domestica Snaidm, with pb” value is recorded as 14.5 μg per g; the “SR, Musca domestica Snaidm” value worked out at 2.4. Also, in the data set on Musca domestica Rsp, the median lethal dose (LD50) stood at 70 mg/kg; the “Topical LD50, Musca domestica Rsp, with pb” value is listed as 19.5 μg per g; the “SR, Musca domestica Rsp” value was determined as 3.6. Besides, in the data set on Phormia regina, the LD50 turned out to be 95 mg/kg; the “SR, Phormia regina” value was 2.2; the “Topical LD50, Phormia regina, with pb” value was determined as 42.5 μg per g. Moreover, the “LC50 Culex fatigans larvae” value in the data set with Culex fatigans larvae is recorded as 0.33 ppm. The “LC50 Anopheles albimanus larvae” value in data set [1] is given as 0.30 ppm.
As for `CCOc1ccc(C(Nc2ccc(OC)cc2)C(Cl)(Cl)Cl)cc1` (stereo not drawn) [XIII], in the data set with Musca domestica Snaidm, the LD50 stood at 23.5 mg/kg; the “Topical LD50, Musca domestica Snaidm, with pb” value is given as 5.5 μg per g; the “SR, Musca domestica Snaidm” value amounted to 4.2. Also, in the data set on Musca domestica Rsp, the LD50 stood at 41 mg/kg; the “Topical LD50, Musca domestica Rsp, with pb” value is given as 12.5 μg per g; the “SR, Musca domestica Rsp” value is given as 3.3. Also, in the data set with Phormia regina, the 50% lethal dose (LD50) was found to be 22 mg/kg; the “SR, Phormia regina” value is on record as 1.8; the “Topical LD50, Phormia regina, with pb” value came out at 12.5 μg per g. Moreover, in the data set with Culex fatigans larvae, the “LC50 Culex fatigans larvae” value is recorded as 0.42 ppm. For the same molecule, in data set [1], the “LC50 Anopheles albimanus larvae” value is 0.68 ppm.
Take `CCOc1ccc(C(Nc2ccc(C)cc2)C(Cl)(Cl)Cl)cc1` (stereo not drawn) [XI, α-trichloromethyl-p-ethoxybenzyl-p-methylaniline]: in the data set on Musca domestica Snaidm, the LD50 was determined as 12.5 mg/kg; the “Topical LD50, Musca domestica Snaidm, with pb” value turned out to be 2.5 μg per g; the “SR, Musca domestica Snaidm” value amounted to 5.0. In the data set on Musca domestica Rsp, the LD50 worked out at 14 mg/kg; the “Topical LD50, Musca domestica Rsp, with pb” value was determined as 4.4 μg per g; the “SR, Musca domestica Rsp” value was found to be 3.2. In the data set on Phormia regina, the 50% lethal dose (LD50) amounted to 7.7 mg/kg and the “Topical LD50, Phormia regina, with pb” value came out at 4.2 μg per g. Moreover, in the data set on Culex fatigans larvae, the “LC50 Culex fatigans larvae” value was determined as 0.073 ppm. The “LC50 Anopheles albimanus larvae” value in data set [1] turned out to be 0.085 ppm.
Take `CCOc1ccc(NC(c2ccc(O)cc2)C(Cl)(Cl)Cl)cc1` (stereo not drawn) [C2 H5 OC6 H4 NHCH(CCl3)C6 H4 OH, α-trichloromethyl-p-hydroxybenzyl-p-ethoxyaniline]: in data set [2], the “Concentration of ethoxyaniline equivalents in Culex (mosquito)” value was 0.13 ppm, the “Concentration of ethoxyaniline equivalents in Gambusia (fish)” value stood at 0.08 ppm, the “Concentration of ethoxyaniline equivalents in H2O” value is recorded as 0.031 ppm and the “Concentration of ethoxyaniline equivalents in Oedogonium (algae)” value worked out at 0.43 ppm. Also, the “Concentration of ethoxyaniline equivalents in Physa (snail)” value in data set [2] amounted to 2.02 ppm.
As to `CCOc1ccc(NC(c2ccc(Cl)cc2)C(Cl)(Cl)Cl)cc1` (stereo not drawn) [VIII], in the data set with Musca domestica Snaidm, the median lethal dose (LD50) is 19.5 mg/kg; the “Topical LD50, Musca domestica Snaidm, with pb” value worked out at 4.1 μg per g; the “SR, Musca domestica Snaidm” value was found to be 4.8. Moreover, in the data set on Musca domestica Rsp, the LD50 worked out at 45 mg/kg; the “Topical LD50, Musca domestica Rsp, with pb” value stood at 13.0 μg per g; the “SR, Musca domestica Rsp” value came to 3.5. In the data set with Phormia regina, the LD50 is 37.5 mg/kg; the “SR, Phormia regina” value is given as 2.8; the “Topical LD50, Phormia regina, with pb” value is given as 13.2 μg per g. Also, the “LC50 Culex fatigans larvae” value in the data set with Culex fatigans larvae is 0.22 ppm. The “LC50 Anopheles albimanus larvae” value in data set [1] is 0.26 ppm.
Take `CCOc1ccc(NC(c2ccc(OC)cc2)C(Cl)(Cl)Cl)cc1` (stereo not drawn) [XIV]: in the data set on Musca domestica Snaidm, the LD50 is 30 mg/kg; the “Topical LD50, Musca domestica Snaidm, with pb” value is 3.9 μg per g; the “SR, Musca domestica Snaidm” value came out at 7.7. Besides, in the data set with Musca domestica Rsp, the LD50 is 37 mg/kg; the “Topical LD50, Musca domestica Rsp, with pb” value is given as 12.0 μg per g; the “SR, Musca domestica Rsp” value is 3.1. In the data set on Phormia regina, the LD50 worked out at 112 mg/kg; the “SR, Phormia regina” value is on record as 5.6; the “Topical LD50, Phormia regina, with pb” value was found to be 20.0 μg per g. The “LC50 Culex fatigans larvae” value in the data set on Culex fatigans larvae was 0.34 ppm. In data set [1], the “LC50 Anopheles albimanus larvae” value is listed as 1.0 ppm.
In the case of `CCOc1ccc(C(=O)O)cc1` [C2 H5 OC6 H4 C(O)OH, p-ethoxybenzoic acid], in data set [2], the “Concentration of ethoxyaniline equivalents in Culex (mosquito)” value is listed as 0.06 ppm, the “Concentration of ethoxyaniline equivalents in Gambusia (fish)” value is recorded as 0.03 ppm, the “Concentration of ethoxyaniline equivalents in H2O” value was found to be 0.123 ppm and the “Concentration of ethoxyaniline equivalents in Oedogonium (algae)” value was 0.38 ppm. The “Concentration of ethoxyaniline equivalents in Physa (snail)” value in data set [2] is on record as 1.800 ppm.
`Cc1ccc(C(Nc2ccc(Cl)cc2)C(Cl)(Cl)Cl)cc1` (stereo not drawn) [Compound XV]: in the data set on Musca domestica Snaidm, the LD50 turned out to be 90 mg/kg; the “Topical LD50, Musca domestica Snaidm, with pb” value stood at 21.0 μg per g; the “SR, Musca domestica Snaidm” value was 4.3. Further, in the data set with Musca domestica Rsp, the 50% lethal dose (LD50) is around 500 mg/kg; the “Topical LD50, Musca domestica Rsp, with pb” value was found to be 36.0 μg per g; the “SR, Musca domestica Rsp” value is 14. Further, in the data set with Phormia regina, the median lethal dose (LD50) amounted to 72.5 mg/kg; the “SR, Phormia regina” value came out at 1.1; the “Topical LD50, Phormia regina, with pb” value is on record as 62.5 μg per g. Also, in the data set on Culex fatigans larvae, the “LC50 Culex fatigans larvae” value stood at 0.066 ppm. Besides, in data set [1], the “LC50 Anopheles albimanus larvae” value stood at 0.13 ppm.
On to `COc1ccc(C(Nc2ccc(C)cc2)C(Cl)(Cl)Cl)cc1` (stereo not drawn) [IX], for which, in the data set with Musca domestica Snaidm, the median lethal dose (LD50) turned out to be 35 mg/kg; the “Topical LD50, Musca domestica Snaidm, with pb” value is 8.5 μg per g; the “SR, Musca domestica Snaidm” value is listed as 4.1. For the same molecule, in the data set with Musca domestica Rsp, the median lethal dose (LD50) amounted to 50 mg/kg; the “Topical LD50, Musca domestica Rsp, with pb” value amounted to 12.0 μg per g; the “SR, Musca domestica Rsp” value was 4.5. In the data set on Phormia regina, the LD50 was 16.5 mg/kg; the “SR, Phormia regina” value was determined as 1.4; the “Topical LD50, Phormia regina, with pb” value was found to be 11.50 μg per g. The “LC50 Culex fatigans larvae” value in the data set with Culex fatigans larvae was determined as 0.26 ppm. In addition, the “LC50 Anopheles albimanus larvae” value in data set [1] is recorded as 0.28 ppm.
Regarding `Cc1ccc(NC(c2ccc(Cl)cc2)C(Cl)(Cl)Cl)cc1` (stereo not drawn) [Compound XVI], in the data set on Musca domestica Snaidm, the median lethal dose (LD50) came to 65 mg/kg; the “Topical LD50, Musca domestica Snaidm, with pb” value came out at 16 μg per g; the “SR, Musca domestica Snaidm” value is 4.1. Moreover, in the data set with Musca domestica Rsp, the LD50 stood at 125 mg/kg; the “Topical LD50, Musca domestica Rsp, with pb” value came out at 30 μg per g; the “SR, Musca domestica Rsp” value was determined as 4.2. In the data set on Phormia regina, the median lethal dose (LD50) is 36.2 mg/kg; the “SR, Phormia regina” value was found to be 1.45; the “Topical LD50, Phormia regina, with pb” value is 25 μg per g. In the data set on Culex fatigans larvae, the “LC50 Culex fatigans larvae” value is listed as 0.18 ppm. For the same molecule, the “LC50 Anopheles albimanus larvae” value in data set [1] came to 0.14 ppm.
Regarding `CCOc1ccc(NC(c2ccc3c(c2)OCO3)C(Cl)(Cl)Cl)cc1` (stereo not drawn) [Compound XVII], in the data set with Musca domestica Snaidm, the median lethal dose (LD50) was 19.5 mg/kg; the “Topical LD50, Musca domestica Snaidm, with pb” value is listed as 3.8 μg per g; the “SR, Musca domestica Snaidm” value is 5.1. For the same molecule, in the data set with Musca domestica Rsp, the LD50 is 35.5 mg/kg; the “Topical LD50, Musca domestica Rsp, with pb” value was 11.0 μg per g; the “SR, Musca domestica Rsp” value was determined as 3.2. Besides, in the data set with Phormia regina, the LD50 was above 250 mg/kg; the “SR, Phormia regina” value is recorded as above 7.7; the “Topical LD50, Phormia regina, with pb” value is reported as 32.5 μg per g. For the same molecule, the “LC50 Culex fatigans larvae” value in the data set on Culex fatigans larvae came to 0.23 ppm. Besides, the “LC50 Anopheles albimanus larvae” value in data set [1] was determined as 0.25 ppm.
